Data reported in patent EP0231622B1, “Inhibition of the 5-lipoxygenase pathway” (priority 1985, dated 1987).
Read-outs that look alike come from different tables or passages of the source. Marks after values point to notes of the source that are not given here.

Key:
[1] = test system: Experimental Allergic Encephalomyelitis; test: Experimental allergic encephalomyelitis, hindleg paralysis; type: in vivo, Female Lewis rats; conditions: p.o. days 0-4, 7-11, 14-18
Protocol: EAE is induced in Female (Charles River) Lewis rats by a single intradermal injection of 0.1 ml of an encephalitogenic emulsion consisting of equial parts of a 50% w/v homogenate of guinea pig spinal cord and mid-brain in 0.5% aqueous phenol and Freund's complete adjuvant (4 mg/ml killed, dried M. butyricum) into a hindpaw (left) footpad. […] Any animal which becomes paralyzed during the course of the experiment is considered to have developed EAE whether or not the paralysis is permanent. Test compounds are administered daily beginning on the day of injection, for 19 days, exclusive of days 5, 6 12 and 13. Drug activity is determined by comparing the indicidence of EAE (paralysis) of the treated group with a control (vehicle) group. The level of significant difference between the treated groups and control groups is determined by a Chi-square test using a 2x2 contingency table. Body weight changes from day 0 are also statistically compared to the control group using a Student "t" test.

[2] = test system: Arachidonic Acid-Induced Inflammation of the Mouse Ear; test: Arachidonic acid-induced mouse ear inflammation; type: in vivo, Balb/c mice
Text: (§1) In the following Examples where mice were used, they were male Balb/c mice (20-28 g), and where rats were used, they were male Lewis rats (180-210 g). All mice and rats were obtained from Charles River Breeding Laboratories, Kingston, N.Y. Within a single experiment, mice and rats were sex and age matched.
(§2) The compounds of Formula (IA) were used either as the free base or in the appropriate salt form. Levamisole was used as the hydrochloride salt. The compounds were homogenized in 0.5% tragacanth. Compounds were administered by gavage at the indicated dose in a final volume of 10 ml/kg. Nordihydroguaiaretic acid (NDGA) was solubilized in dimethylacetamide and diluted with olive oil for subcutaneous administration.
Arachidonic acid in acetone (2 mg/20 ul) was applied to the inner surface of the left ear. The thickness of both ears was then measured with a dial micrometer one hour after treatment, and the data were expressed as the change in thickness (10⁻³ cm) between treated and untreated ears.
Test compounds were given orally in 0.5% tragacanth at the times indicated in the text prior to the topical application of arachidonic acid.
Parenteral administration of compound was accomplished by subcutaneous injection of solution as indicated.

[3] = molecular target: T1, 5-LO (Rattus norvegicus, UniProt P12527); test: di-HETE production by RBL-1 high speed supernatant; type: biochemical; conditions: concentrations up to 10⁻⁴M; soluble extract of RBL-1 cells
T1 construct: The activities of these enzymes in extracts of RBL-1 cells were assayed; host or cells: RBL-1 cells, disrupted by nitrogen cavitation; 10,000 x g or 100,000 x g supernatant
T1 sequence (P12527 1-673): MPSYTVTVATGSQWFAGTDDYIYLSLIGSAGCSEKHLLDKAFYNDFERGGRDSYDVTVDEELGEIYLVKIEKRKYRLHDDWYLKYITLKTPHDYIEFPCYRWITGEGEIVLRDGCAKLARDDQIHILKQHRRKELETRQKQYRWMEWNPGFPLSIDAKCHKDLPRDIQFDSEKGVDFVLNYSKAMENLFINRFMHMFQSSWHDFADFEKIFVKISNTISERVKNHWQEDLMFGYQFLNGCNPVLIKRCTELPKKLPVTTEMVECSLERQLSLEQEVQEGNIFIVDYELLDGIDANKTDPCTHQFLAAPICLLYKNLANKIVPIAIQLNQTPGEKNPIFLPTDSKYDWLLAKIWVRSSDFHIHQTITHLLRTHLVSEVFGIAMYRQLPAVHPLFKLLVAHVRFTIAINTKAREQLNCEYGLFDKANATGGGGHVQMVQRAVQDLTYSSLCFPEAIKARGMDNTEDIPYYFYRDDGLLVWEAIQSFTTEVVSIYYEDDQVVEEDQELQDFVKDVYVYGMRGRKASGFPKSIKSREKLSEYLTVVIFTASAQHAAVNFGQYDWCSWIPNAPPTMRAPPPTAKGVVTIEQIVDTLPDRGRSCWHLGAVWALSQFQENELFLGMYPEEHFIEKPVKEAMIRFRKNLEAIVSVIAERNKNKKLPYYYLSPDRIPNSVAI
Protocol: (§3) For in vitro experiments, compounds were dissolved at appropriate concentrations in ethanol or DMSO (dimethylsulfoxide) (final concentration <1.0%) and then diluted to final concentrations using the buffers indicated in the text.
The activities of these enzymes in extracts of RBL-1 cells were assayed using the method of Jakschik and Lee, Nature, 287, 51-52 (1980). RBL-1 cells were obtained from the American Type Culture Collection (#CRL 1378) and were grown at 37°C (5% CO₂ in air) in spinner culture in MEM supplemented with 10% heat inactivated fetal calf serum. Harvested cells were washed with 50 mM sodium phosphate buffer, pH 7.0, containing 1 mM EDTA and 0.1% gelatin, resuspended in fresh buffer (5 x 10⁷ cells/ml) and disrupted by nitrogen cavitation using the Parr bomb at 750 psi for 10 min. The broken cell extract was then centrifuged at 10,000 x g for 20 minutes and the supernatant centrifuged at 100,000 x g for 60 minutes. Aliquots (0.25 mls) of the supernatant were preincubated with or without drugs for 10 min, after which 10 ul CaCl₂ (50 mM) was added and the reaction was initiated with 2.5 ul of 2.5 mM arachidonic acid-1-¹⁴C (final concentration was […]; specific activity 20,000 dpm/nmole). After incubation for 3 min at 37°C, the reaction was terminated by addition of 2 volumes (0.5 ml) ice cold acetone and the sample was allowed to deproteinize on ice for 10 min prior to centrifugation at 1,000 x g for 10 min. The deproteinized supernatant was adjusted to pH 3.5 with 2N formic acid and extracted with 2 volumes of ice cold ethyl acetate. The extracted samples were dried under argon, redissolved in ethyl acetate and applied to Whatman LK5D thin layer chromatography (TLC) plates which were developed using the A-9 solvent system [organic phase of ethyl acetate: 2,2,5-trimethylpentane:acetic acid: water (110:50:20:10)] described by Hamberg and Samuelsson, J. Biol. Chem., 241, 257-263 (1966). Arachidonic acid, 5-HETE, di-HETE and PGD₂ were quantified with a Berthold LB 2832 autoscanner.
The 5-lipoxygenase and LTA₄ synthetase activities were further studied under the following conditions. An additional centrifugation of the RBL-1 supernatant was run at 100,000 x g for 60 min, to remove the particulate cyclooxygenase activity. Sample incubation was done under conditions similar to those described above, i.e., 2 mM CaCl₂ and 25 uM arachidonic acid-1-¹⁴C, however, with an incubation time of 5 min at […]. Under these conditions, only the 5-lipoxygenase pathway metabolites were detectable. The 5-HETE and di-HETEs were formed at a linear rate, and […] amounts of the arachidonic acid-1-¹⁴C substrate were utilized.

[4] = test system: Carrageenan-Induced Cellular Infiltration; test: Carrageenan-induced air pouch inflammation; type: in vivo, Lewis rats; conditions: 3 hours after carrageenan
Text: as §1, §2
(§4) Rats were shaved on the dorsal flank, and then injected subcutaneously one day later with 20 ml of air to form a defined pouch, by the method of Sedgwick et al., J. Pathology, 141, 483-495 (1983). The air pouch was reinflated as necessary over the next 6 days. To assay anti-inflammatory activity, animals were treated orally with test compound or vehicle (10 ml/kg) one hour before injection of 2.0 ml of a 2.0% carrageenan suspension containing 200 units/ml penicillin and 100 »g/ml streptomycin into the air pouch. In other experiments, 5 ml of 0.1% arachidonic acid in 0.2 M bicarbonate buffer was injected two hours after drug treatment. Animals were sacrificed using CO₂ three hours after instillation of irritant. The exudate was then aspirated from the pouch and neutrophil count and differential cell count were measured.

[5] = test system: Arachidonic Acid-Induced Cellular Infiltration; test: Arachidonic acid-induced air pouch inflammation; type: in vivo, Lewis rats; conditions: 3 hours after arachidonic acid
Text: as §1, §2, §4

[6] = test system: Polymorphonuclear Leukocytes; test: Mouse Carrageenan Peritonitis (PMN infiltration); type: in vivo, Balb/c mice; conditions: p.o.
Text: as §1, §2
Mice were pretreated with either the test compound or vehicle one hour before the intraperitoneal injection of a 1.0% carrageenan suspension in saline (0.2 ml/ mouse). Mice were sacrificed by cervical dislocation two hours after injection, and 3.0 ml of phosphate buffered saline, without Ca⁺⁺ or Mg⁺⁺, was injected into the peritoneum. Following massage, a 2.0 ml aliquot of the lavage fluid was removed, and the total cell count determined on a Coulter counter and differential cell count determined by microscopic examination of Giesma-stained slides.

[7] = test system: Arachidonic Acid-Induced Rat Paw Edema; test: Arachidonic acid-induced rat paw swelling; type: in vivo, Lewis rats; conditions: read at 2 hours; for Change in Paw Volume: one hour before arachidonic acid
Text: as §1, §2

[8] = test system: Production of PGE₂ by Mouse Peritoneal Exudate Cells; test: PGE2 production by peritoneal macrophages; type: cell-based
Protocol: as §3
Mice were injected intraperitoneally with 350 »g Corynebacterium parvum and the peritoneal exudate cell population was harvested 12-14 days later by peritoneal lavage with cold phosphate-buffered saline, and resuspended in Eagles minimal essential medium supplemented with 5% fetal calf serum. […] Test compounds were added (100 ul) to bring the final volume to 1.0 ml. Lipopolysaccharide (5 »g/ml) was then added to stimulate PGE₂ synthesis. After incubation at 37°C for 2 hours, cell-free supernatants were harvested, placed in polypropylene tubes and frozen at -20°C until assayed for their PGE₂ content using a commercial radioimmunoassay kit. IC₅₀ is the concentration that inhibits 50% of control activity.

Compound: CN(Cc1cnc2nc(N)nc(N)c2n1)c1ccc(C(=O)N[C@@H](CCC(=O)O)C(=O)O)cc1 [METHOTREXATE]
- HINDLEG PARALYSIS - CUMULATIVE INCIDENCE DAY 9 TO 13 ([1]; 0.3 Mg/kg/day): 0/11**
- HINDLEG PARALYSIS - CUMULATIVE INCIDENCE DAY 14 TO 18 ([1]; 0.3 Mg/kg/day): 0/11**

Compound: COc1ccc2c(c1)c(CC(=O)O)c(C)n2C(=O)c1ccc(Cl)cc1 [Indomethacin]
- Increase in Ear Thickness at 1 Hour (x 10⁻³ cm) ([2]; Table 7, 10 mg/kg, p.o.): 24.4 ± 0.8 x 10⁻³ cm
- effect on eicosanoid formation (di-HETE production) [3]: inactive
- Cellular Infiltrate (Total x 10⁻⁶) MN ([4]; 5 mg/kg): 4.0 ± 0.8 x 10⁻⁶
- Cellular Infiltrate (Total x 10⁻⁶) PMN ([4]; 5 mg/kg): 2.8 ± 0.7^d x 10⁻⁶
- Exudate Volume ([4]; 5 mg/kg): 2.0 ± 0.5 mL
- Cellular Infiltrate (Total x 10⁻⁶) MN ([5]; 5 mg/kg): 7.0 ± 6.4 x 10⁻⁶
- Cellular Infiltrate (Total x 10⁻⁶) PMN ([5]; 5 mg/kg): 5.0 ± 3.8 x 10⁻⁶
- Exudate Volume ([5]; 5 mg/kg): 2.5 ± 0.8 mL
- % Change ([6]; Table 3, 10 mg/kg): -12^b %
- PMN x 10⁻⁵/ml (mean ± S.D.) ([6]; Table 3, 10 mg/kg): 8.20 ± 2.65 x 10⁻⁵/ml
- Change in Paw Volume ([7]; 5 mg/kg): 0.29 ± 0.06 mL
- (% Inhibition) of change in paw volume ([7]; 5 mg/kg): 0%
- HINDLEG PARALYSIS - CUMULATIVE INCIDENCE DAY 9 TO 13 ([1]; 2 Mg/kg/day): 6/11
- HINDLEG PARALYSIS - CUMULATIVE INCIDENCE DAY 14 TO 18 ([1]; 2 Mg/kg/day): 10/11

Compound: O=C1CCN(c2ccccc2)N1 [Phenidone]
- ED50 ([2]; Mus musculus, po, 1 hour after 2 mg of arachidonic acid to the ear, read-out: ED₅₀ (inhibition of the edematous response of the ear)): 44 mg/kg
- % Change ([2]; Table 7, 50 mg/kg, p.o.): -57^b %
- Increase in Ear Thickness at 1 Hour (x 10⁻³ cm) ([2]; Table 7, 50 mg/kg, p.o., 15 minutes before arachidonic acid): 12.2 ± 1.6 x 10⁻³ cm
- IC50 ([8]; Macrophage, read-out: IC₅₀ production of PGE₂ by inflammatory macrophages): 28 µM
- IC50 ([8]; Peritoneal macrophage, Table 10, LPS-stimulated, C. parvum-elicited peritoneal exudate cells, read-out: IC₅₀ (»M) production of PGE₂): 28 µM
- Cellular Infiltrate (Total x 10⁻⁶) MN ([4]; 100 mg/kg): 3.5 ± 1.4 x 10⁻⁶
- Cellular Infiltrate (Total x 10⁻⁶) PMN ([4]; 100 mg/kg): 1.7 ± 0.6^d x 10⁻⁶
- Exudate Volume ([4]; 100 mg/kg): 1.5 ± 0.8 mL
- Cellular Infiltrate (Total x 10⁻⁶) MN ([5]; 100 mg/kg): 2.2 ± 1.5^d x 10⁻⁶
- Cellular Infiltrate (Total x 10⁻⁶) PMN ([5]; 100 mg/kg): 1.3 ± 0.8^e x 10⁻⁶
- Exudate Volume ([5]; 100 mg/kg): 2.8 ± 0.4 mL
- % Change ([6]; Table 1, 50 mg/kg): -51^c %
- PMN x 10⁻⁵/ml (mean ± S.D.) ([6]; Table 1, 50 mg/kg): 5.30 ± 2.25 x 10⁻⁵/ml
- PMN x 10⁻⁵/ml (mean ± S.D.) ([6]; Table 1, 100 mg/kg, 1 h before i.p. carrageenan, read 2 h later): 6.97 ± 3.81 x 10⁻⁵/ml
- % Change ([6]; Table 1, 100 mg/kg, PMN vs vehicle): -36^d %
- % Change ([6]; Table 1, 200 mg/kg): -94^b %
- PMN x 10⁻⁵/ml (mean ± S.D.) ([6]; Table 1, 200 mg/kg): 0.66 ± 0.53 x 10⁻⁵/ml
- Change in Paw Volume ([7]; 100 mg/kg): 0.13 ± 0.05 mL
- (% Inhibition) of change in paw volume ([7]; 100 mg/kg): 52%
